{"source": "PubChem BioAssay AID2060882", "about": "(Molecular Pharmacology Branch, DTP, NCI, 2025)", "tested_on": "898857-211-R-J1-PDC complex spheroids, growth % test/control", "test": "Anticancer human tumor 898857-211-R-J1-PDC patient-derived melanoma cell line growth inhibition [RAS]", "conditions": "for viability, T/C: stronger effect = lower value", "description": "RAS pathway inhibitors in Combinations in Complex Spheroids\nA high-throughput screen of multi-cell type tumor spheroids was designed to identify active combinations of RAS pathway inhibitors and targeted small molecules. Complex spheroids include a stromal component modeled by human endothelial cells (HUVEC) and fibroblasts modeled by human mesenchymal stem cells (MSCs). The concentration ranges selected for each drug and investigational agent were based upon clinically achievable concentrations if the clinical Cmax of the agent was known.\nCompounds. The drugs and investigational agents: abemaciclib (NSC768073), cobimetinib (NSC768068), divarasib (GDC6063, NSC841802), docetaxel (NSC628503), GDC-1971 (RLY-1971, NSC841576), gemcitabine (NSC613327), inavolisib (NSC800729), ipatasertib (NSC767898), KB-0742 (NSC834161), MRTX-1133 (NSC836407), osimertinib (NSC779217), RMC-4630 (NSC839698), RMC-6236 (NSC851965), RMC-6291 (NSC852671), Ro-3306 (NSC812927), sapanisertib (NSC764658), SN-38 (NSC673596), staurosporine (NSC755774), SY5609 (NSC837396), and tovorafenib (DAY101, NSC766906), were obtained from the National Cancer Institute (NCI) Developmental Therapeutics Program Chemical Repository. The FDA-approved anticancer drug set is available from the NCI Developmental Therapeutics Program. […] The stock solutions were prepared in dimethyl sulfoxide (DMSO, Sigma-Aldrich, St. Louis, MO, cat. D2650) at 800-fold the tested concentration and stored at -70 degrees C prior to their use. All drugs and investigational agents were tested over a range starting from a high concentration at or near the clinical Cmax and decreasing in half-log increments. If the clinical Cmax for an agent had not been determined, the highest concentration tested was 10 microM.\nCell Culture. All cells were maintained in an incubator at 37 degrees C and 5% CO2 with 95% humidity. The PDC lines were cultured according to standard operating procedures established by the NCI PDMR. All PDCs were thawed and cultured in Matrigel-coated flasks prepared with a working solution of 1X Ham's F-12 nutrient mix, without supplementation (Invitrogen, Waltham, MA, cat. 11765054), 100 U/mL penicillin-streptomycin (Invitrogen, cat. 15140122), and 2.5% Matrigel (Corning Inc., Corning, NY, cat. 354248) for the first three passages. The 362531-283-R-J2-PDC and 782815-120-R-J1-PDC lines were cultured in 6C/Colon 1B media, which includes advanced DMEM/F-12 (Thermo Fisher Scientific, cat. 12634028), 10 mM HEPES (Thermo Fisher Scientific, cat. 15630080), 1X GlutaMAX supplement (Thermo Fisher Scientific, cat. 35050061), 0.1 mg/mL primocin (InvivoGen, San Diego, CA, cat. ant-pm-2), 10% defined fetal bovine serum, heat inactivated (HyClone Laboratories Inc., Logan, UT, cat. SH30070.03HI), 50% L-WRN conditioned media (ATCC, cat. CRL-3276), 1.25 mM N-Acetyl-L-cysteine (Sigma-Aldrich, cat. A9165), 10 mM nicotinamide (Sigma-Aldrich, cat. N0636), 1X B-27 supplement (Thermo Fisher Scientific, cat. 17504044), 1X N-2 supplement (Thermo Fisher Scientific, cat. 17502048), 50 ng/mL human EGF (Thermo Fisher Scientific, cat. PHG0311), and 10 microM Y-27632 dihydrochloride (Tocris Bioscience, cat. 1254). The K12877-001-R-J1-PDC line was cultured in 6I media, which includes all 6C/Colon 1B media plus 10 ng/mL human FGF-10 (PeproTech, cat. 100-26), 1 ng/mL human FGF-2 (PeproTech, cat. 100-18B), 1 µM prostaglandin E2 (Tocris Bioscience, cat. 2296), […] hydrocortisone (Sigma-Aldrich, cat. H4001), and […] bovine insulin (Sigma-Aldrich, cat. I6634). The K86415-001-R-J1-PDC line was cultured in 6D media, which includes all 6C/Colon 1B media components minus the L-WRN conditioned media. The 485176-168-R4-J1-PDC was cultured in PANC media, which includes all 6C/Colon 1B media plus 100 ng/mL human FGF-10 (PeproTech, cat. 100-26), 500 nM SB-431542 (Selleckchem, cat. S1067), and 10 nM gastrin (Tocris Bioscience, cat. 3006). […]", "note": "“And” between values parts separate entries of the source, which are not always exact repeats. Equal entries are not always repeated.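 Note: spheroids exposed to compound for seven days before readout.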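 Throughout, for viability, T/C: 100% = DMSO vehicle control wells.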"}
{"smiles": "C#Cc1c(F)ccc2cc(O)cc(-c3ncc4c(N5CC6CCC(C5)N6)nc(OCC56CCCN5CC(F)C6)nc4c3F)c12", "note": "(stereo not given)", "values": [{"measurement": "viability, T/C", "setting": "compound 0.0316 µM", "result": "105% [middle of 8 runs]"}, {"measurement": "viability, T/C", "setting": "compound 0.1 µM", "result": "111% [middle of 8 runs]"}, {"measurement": "viability, T/C", "setting": "compound 0.316 µM", "result": "108% [middle of 8 runs]"}, {"measurement": "viability, T/C", "setting": "compound 1 µM", "result": "109% [middle of 8 runs]"}, {"measurement": "viability, T/C", "setting": "compound 3.16 µM", "result": "103% [middle of 8 runs]"}, {"measurement": "viability, T/C", "setting": "compound 10 µM", "result": "50.8% [middle of 8 runs]"}]}
{"smiles": "C=CC(=O)N1CCN(c2nc(OCC3CCCN3C)nc3c(F)c(-c4nc(N)cc(C)c4C(F)(F)F)c(Cl)cc23)C(C)C1", "note": "(stereo not given)", "values": [{"measurement": "viability, T/C", "setting": "compound 0.00316 µM, compound 0.0316 µM", "result": 121, "unit": "%"}, {"measurement": "viability, T/C", "setting": "compound 0.00316 µM, compound 0.1 µM", "result": 105, "unit": "%"}, {"measurement": "viability, T/C", "setting": "compound 0.00316 µM, compound 0.316 µM", "result": 117, "unit": "%"}, {"measurement": "viability, T/C", "setting": "compound 0.00316 µM, compound 1 µM", "result": 124, "unit": "%"}, {"measurement": "viability, T/C", "setting": "compound 0.00316 µM", "result": "110% [middle of 11 runs]"}, {"measurement": "viability, T/C", "setting": "compound 0.01 µM, compound 0.00316 µM", "result": 98.1, "unit": "%"}, {"measurement": "viability, T/C", "setting": "compound 0.01 µM, compound 0.0316 µM", "result": 108, "unit": "%"}, {"measurement": "viability, T/C", "setting": "compound 0.01 µM, compound 0.1 µM", "result": 112, "unit": "%"}, {"measurement": "viability, T/C", "setting": "compound 0.01 µM, compound 0.316 µM", "result": 116, "unit": "%"}, {"measurement": "viability, T/C", "setting": "compound 0.01 µM, compound 1 µM", "result": 127, "unit": "%"}, {"measurement": "viability, T/C", "setting": "compound 0.01 µM", "result": "108% [middle of 12 runs]"}, {"measurement": "viability, T/C", "setting": "compound 0.0316 µM, compound 0.00316 µM", "result": 102, "unit": "%"}, {"measurement": "viability, T/C", "setting": "compound 0.0316 µM, compound 0.01 µM", "result": 108, "unit": "%"}, {"measurement": "viability, T/C", "setting": "compound 0.0316 µM, compound 0.1 µM", "result": 103, "unit": "%"}, {"measurement": "viability, T/C", "setting": "compound 0.0316 µM, compound 0.316 µM", "result": 115, "unit": "%"}, {"measurement": "viability, T/C", "setting": "compound 0.0316 µM, compound 1 µM", "result": 122, "unit": "%"}, {"measurement": "viability, T/C", "setting": "compound 0.0316 µM", "result": "112% [middle of 12 runs]"}, {"measurement": "viability, T/C", "setting": "compound 0.1 µM, compound 0.00316 µM", "result": 109, "unit": "%"}, {"measurement": "viability, T/C", "setting": "compound 0.1 µM, compound 0.01 µM", "result": 103, "unit": "%"}, {"measurement": "viability, T/C", "setting": "compound 0.1 µM, compound 0.0316 µM", "result": 122, "unit": "%"}, {"measurement": "viability, T/C", "setting": "compound 0.1 µM, compound 0.316 µM", "result": 118, "unit": "%"}, {"measurement": "viability, T/C", "setting": "compound 0.1 µM, compound 1 µM", "result": 127, "unit": "%"}, {"measurement": "viability, T/C", "setting": "compound 0.1 µM", "result": "114% [middle of 12 runs]"}, {"measurement": "viability, T/C", "setting": "compound 0.316 µM, compound 0.00316 µM", "result": 125, "unit": "%"}, {"measurement": "viability, T/C", "setting": "compound 0.316 µM, compound 0.01 µM", "result": 121, "unit": "%"}, {"measurement": "viability, T/C", "setting": "compound 0.316 µM, compound 0.0316 µM", "result": 119, "unit": "%"}, {"measurement": "viability, T/C", "setting": "compound 0.316 µM, compound 0.1 µM", "result": 125, "unit": "%"}, {"measurement": "viability, T/C", "setting": "compound 0.316 µM, compound 1 µM", "result": 127, "unit": "%"}, {"measurement": "viability, T/C", "setting": "compound 0.316 µM", "result": "115% [middle of 12 runs]"}, {"measurement": "viability, T/C", "setting": "compound 1 µM, compound 0.00316 µM", "result": 115, "unit": "%"}, {"measurement": "viability, T/C", "setting": "compound 1 µM, compound 0.01 µM", "result": 126, "unit": "%"}, {"measurement": "viability, T/C", "setting": "compound 1 µM, compound 0.0316 µM", "result": 123, "unit": "%"}, {"measurement": "viability, T/C", "setting": "compound 1 µM, compound 0.1 µM", "result": 112, "unit": "%"}, {"measurement": "viability, T/C", "setting": "compound 1 µM, compound 0.316 µM", "result": 119, "unit": "%"}, {"measurement": "viability, T/C", "setting": "compound 1 µM", "result": "116% [middle of 12 runs]"}, {"measurement": "IC50", "setting": "compound alone, run of 09/09/2024", "result": "> 1000", "unit": "nM"}, {"measurement": "IC50", "setting": "curve of compound", "result": "> 1000", "unit": "nM"}]}
{"smiles": "C=CC(=O)Nc1cc(Nc2nccc(-c3cn(C)c4ccccc34)n2)c(OC)cc1N(C)CCN(C)C", "values": [{"measurement": "viability, T/C", "setting": "compound 0.00316 µM", "result": "113% and 103% (2×) and 128%"}, {"measurement": "viability, T/C", "setting": "compound 0.01 µM", "result": "99.8% [middle of 4 runs]"}, {"measurement": "viability, T/C", "setting": "compound 0.0316 µM", "result": "114% [middle of 4 runs]"}, {"measurement": "viability, T/C", "setting": "compound 0.1 µM", "result": "102% [middle of 4 runs]"}, {"measurement": "viability, T/C", "setting": "compound 0.316 µM", "result": "92.8% [middle of 4 runs]"}, {"measurement": "viability, T/C", "setting": "compound 1 µM", "result": "54.5% [middle of 4 runs]"}, {"measurement": "IC50", "setting": "curve of compound", "result": "970 nM and > 1000 nM and 799 nM"}]}
